Laboratory results taken from US20170240522A1, “BENZOTHIOPHENE, BENZYLOXYBENZYLIDENE AND INDOLINE DERIVATIVES USEFUL FOR THE TREATMENT OF TUBERCULOSIS” (priority 2014, published 2017).

Assays:
GroEL = details: BBH7 and BTP15 treatment
Description: In brief, 30 ml of bacteria grown to mid-logarithmic phase (OD600 of 0.6 to 0.7) in Sauton's medium supplemented with 0.05% Tween 80 were centrifuged and resuspended in Sauton's medium without Tween. Compounds were added at concentrations as indicated and cells were grown further at 37° C. with shaking for 4 days. Cultures were harvested by centrifugation to obtain culture filtrates and cell pellets. Culture filtrates were concentrated 100-fold in 5-kDa cutoff Vivaspin columns (Sartorius). Cell lysates were prepared by bead beating bacterial pellets in lysis buffer with 100-μm glass beads.
For immunoblot analysis, 5 μg of protein were resolved by SDS-gel electrophoresis and transferred to nitrocellulose membranes. Membranes were blocked with TBS-buffer (3% milk powder) and incubated overnight with the desired primary antibody diluted in TNT-buffer supplemented with 1% BSA fraction V. Membranes were washed with TNT, incubated with the appropriate secondary antibody in TNT-BSA, washed again with TNT, and developed. GroEL2 was used as a lysis control for culture filtrates and as a loading control for cell lysates.

ESX-1 = ESX-1 inhibitory activity of inhibitors of mycobacterium virulence (Table VII); format: cell-based, Mycobacterium tuberculosis
EsxA = format: cell-based, Mycobacterium tuberculosis
[1] = tested on: Mtb-infected THP-1 macrophages; format: cell-based, human
[2] = tested on: several other mycobacteria and non-mycobacterial pathogens; assay: REMA assay of non-Mtb strains; format: cell-based
Ag85 complex proteins = format: cell-based, Mycobacterium tuberculosis; details: 5 μM
[3] = tested on: Mtb culture filtrate proteins; assay: Secretome analysis of culture filtrate (LC/MS-MS); format: cell-based, Mycobacterium tuberculosis; details: 5 μM
Description: For the secretome analysis 10 μg of protein was reconstituted in 200 μl of 4 M Urea, 10% acetonitrile and buffered with Tris-HCl pH 8.5 to a final concentration of 30 mM. Proteins were reduced in 10 mM dithioerythritol (DTE) at 37° C. for 60 min. and then alkylated in 40 mM iodoacetamide at 37° C. for 45 min. Reactions were quenched by addition of DTE to a final concentration of 10 mM. First, protein digestion was performed using Lys-C (1:50 enzyme:protein) for 2 hours at 37° C. The lysates were then diluted 5-fold and a second digestion was performed overnight at 37° C. using mass spectrometry grade trypsin gold (1:50 enzyme:protein) and 10 mM CaCl2. Reactions were stopped by addition of 8 μl of pure formic acid and peptides were concentrated by vacuum centrifugation to a final volume of 70 μl.
• After digestions, samples were dimethyl-labeled as described previously (Boersema et al., 2009). […]
• Each SAX fraction was resuspended in 2% acetonitrile, 0.1% FA and loaded on a capillary pre-column (Magic AQ C18; 3 μm by 200 Å; 2 cm×100 μm ID). […] Relative quantification within different conditions was obtained calculating the significance B values for each of the identified proteins using Perseus (Cox et al., 2009).

[4] = tested on: Mtb-GFP inside activated THP-1 cells; format: cell-based, Mycobacterium tuberculosis; details: activated THP-1, 10 μM
THP-1 macrophages = assay: Survival of Mtb-infected activated THP-1 macrophages; format: cell-based, human; details: activated THP-1, higher MOI, 10 μM
[5] = tested on: Mtb expressing GFP in infected fibroblasts; format: cell-based, Mycobacterium tuberculosis; details: compound concentration 5 μM (FIG. 2D)
Mtb-Erdman = assay: Growth of Mtb in 7H9 broth; format: cell-based, Mycobacterium tuberculosis; details: 25 μM

SMILES: CSC(=S)N/N=C(\C)c1ccc(OCc2ccc(F)cc2F)cc1 [BBH7, N′-{1-[4-(2,4-Difluoro-benzyloxy)-phenyl]ethylidene}-hydrazinecarbodithioic acid methyl ester]
- GroEL in the culture filtrate (cell lysis) (GroEL): not observed
- Activity (ESX-1): 97%
- EsxA secretion (EsxA): dose-dependent secretion inhibition
- rate of bacteria in acidic compartments (Lysotracker Red co-localization) [1]: significantly higher rate
- MIC99 [2]: > 100 µM
- Ag85 secretion (Ag85 complex proteins): fully blocked
- reduction of total culture filtrate protein [3]: 50%
- abundance of ESX-5 substrates (EsxN/EsxM, PE25, PPE41) in culture filtrate ([3]; LC-MS/MS): significantly reduced in abundance
- intracellular bacterial load [4]: greatly reduced the intracellular bacterial load
- protection of THP-1 cells from Mtb-induced cell death (THP-1 macrophages): protected THP-1 cells from Mtb-induced cell death
- GFP fluorescence of Mtb in infected fibroblasts [5]: no fluorescence was detected
- growth inhibition of Mtb (Mtb-Erdman): no growth inhibition
